{"source": "patent US8235974B2", "about": "“Method for hair removal” (Ecole Polytechnique Federale de Lausanne (EPFL), priority 2001, dated 2012)", "key": {"skin area": {"test_system": "skin area", "conditions": "applied 15 to 25 hours, pulsed red light, cited from earlier work"}, "sheep": {"test_system": "sheep", "conditions": "light irradiation about 8 to 10 hours later, 600 to 700 nm; cited from earlier work"}, "[1]": {"test_system": "PpIX fluorescence in human forearm or leg skin areas (hair follicle vs epidermis)", "experiment": "Macroscopic PpIX fluorescence imaging of skin after topical photosensitizer precursor; ratio r hair follicle/hairless epidermis", "type": "in vivo", "protocol": "The photosensitizer precursors were formulated within standard excipients of the European Pharmacopoeia, namely unguentum leniens (UL) and unguentum hydrophilicum anionicum (UH); for some essays, the photosensitizer precursors were suspended either in pure glycerol (GLY) or in pure diethylene glycol monoethyl ether (DGME).\nThe formulations were administered topically on the forearm or the leg using the Tegaderm™ transparent dressing. This dressing enables the transport of water and oxygen according to the specifications of the manufacturer. This dressing was removed and the remaining formulation cleaned with pure ethanol just before the measurements performed at one single point in time. For the pharmacokinetic measurements, this dressing was removed after four hours. This removal of the Tegaderm™ during the remaining time course of the measurements induced negligible minimal alterations of the measurements due to the excellent transparency of this dressing at the wavelengths of interest.\nA fluorescence imaging system illustrated by FIG. 9 was developed to assess the extent and level of PpIX production in “macroscopic” samples (parts of the human body such as: forearm, leg, back, etc.). As the goal is to assess the relative level of PpIX in the hair follicle of these samples, red light at 635 nm was chosen as PpIX fluorescence excitation wavelength. It is indeed well known that red light penetrates deeper in the cutaneous tissues than green and violet light, the later two wavelengths corresponding to larger PpIX absorption peaks (see the PpIX fluorescence excitation and emission spectra presented on the right side in FIG. 9).\nAs presented in the schematic diagram presented in FIG. 9, this fluorescence imaging system involves a modified 300 W D-light source 1 (Xe arc lamp from Storz, Tuttlingen, Germany) equipped with a red bandpass filter (635 nm, 20 nm FWHM; Chroma, USA). This fluorescence excitation light is coupled in a Storz 4 mm diameter light guide 2. The output of this light guide is imaged on the tissue sample 3 with a projection objective 4 (Nikon, Japan; AF Nikkor; 1:1.4 D/50 mm) to generate a homogenous spot of 2.5 cm in diameter with an irradiance of 2 mW/cm^2 at 635 nm. The distance between this projection objective 4 and the sample 3 is 25 cm. Therefore, the light beam illuminating the sample can be considered as parallel. The fluorescence is collected by another objective 5 (Fujinon, Japan; TV zoom lens; 1:1.2/12.5-75 mm; Type H6X12.5R-MD3) through a longpass filter 6 (Schott, Germany; RG665) and the image detected by a scientific CCD camera (752×582 pixels CF 8/1 Kappa, Gleichen, Germany) equipped 7 with an image intensifier (Proxifier BV 256-2FcZ-CH, Proxitronic, Bensheim, Germany). The images are captured by the 8-bits camera frame grabber and saved on the computer 8 with the “Kappa Imagebase-control” software. Image treatment is carried out using the IPLab imaging software. The spatial resolution of the complete setup has been measured with an USAF resolution target and the value we obtained in the sample plan is 3 lp/mm, the size of the image detected by the camera being 3×4 cm^2. A reference sample has been designed to enable a comparison of the relative fluorescence brightness between samples investigated at different times. This reference consists of a ruby disk (diameter: 12 mm; thickness: 1.02 mm; Type 8Sp3, Hans Stettler SA, Lyss, Switzerland) covered with a neutral density filter (T=2.27%) so that the signal obtained with this reference sample corresponds to the typical tissue fluorescence detected in our conditions.\nThe images were analyzed using the NIH image software. The method consisted in identifying the location of an area corresponding to: 1) one typical hair follicle and 2) epidermis presenting no skin appendages. The number of pixels involved in such an area was typically 100. […]"}, "[2]": {"test_system": "skin area (hairs, follicles, epidermis)", "experiment": "Irradiation of treated skin areas at 635 nm: hair removal and skin reaction", "type": "in vivo, human", "conditions": "pure, applied 195 minutes; irradiated 200 minutes later, 30 J/cm^2 at 65 mW/cm^2 (FIG. 7A)"}, "[3]": {"conditions": "three hours administration, 20% in DGME"}, "[4]": {"conditions": "three hours administration, 20% in glycerol"}}, "data": [{"smiles": "Cl.NCC(=O)CCC(=O)O", "note": "[ALA, 5-amino-levulinic acid hydrochloride]", "values": [{"measurement": "hair removal", "setting": "skin area; treatment repeated about 4 to 8 times", "value": "effective"}, {"measurement": "duration of sunburn like side effects after an irradiation", "setting": "skin area", "value": "2 to 20", "unit": "days"}, {"measurement": "side effects in treated skin areas of test animals", "setting": "sheep", "value": "edema, discoloration and crusting"}, {"measurement": "wool growth", "setting": "sheep", "value": "significantly reduced"}, {"measurement": "ratio r (hair follicle/epidermis fluorescence)", "setting": "[1]; [3]", "value": 2.21}, {"measurement": "ratio r (hair follicle/epidermis fluorescence)", "setting": "[1]; [4]", "value": 1.62}, {"measurement": "ratio r (fluorescence brightness hair follicle area / hairless epidermis area)", "setting": "[1]; three hours after administration, in unguentum hydrophilicum", "value": 1.46}]}, {"smiles": "CCOCCOCCOC(=O)CCC(=O)CN", "note": "[ALA-DGME, diethylene glycol monoethyl ether 5-amino-levulinate]", "values": [{"measurement": "ratio r (hair follicle/epidermis fluorescence)", "setting": "[1]; pure, lower leg, 3 hours, normal skin temperature of 31° C.", "value": 3.47}, {"measurement": "ratio r (hair follicle/epidermis fluorescence)", "setting": "[1]; pure, lower leg, three hours at 41° C. (electric blanket)", "value": 4.72}, {"measurement": "ratio r (hair follicle/epidermis fluorescence)", "setting": "[1]; [3]", "value": 3.24}, {"measurement": "ratio r (hair follicle/epidermis fluorescence)", "setting": "[1]; [4]", "value": 2.51}, {"measurement": "skin reaction one day after irradiation", "setting": "[2]", "value": "a clear reaction selectivity between the skin areas around follicles and the epidermis in bulk"}]}, {"smiles": "COC(=O)CCC(=O)CN", "note": "[m-ALA, methyl ester of ALA]", "values": [{"measurement": "kinetics of the hair follicle/epidermis fluorescence ratio", "setting": "[1]; 20% in Unguentum Leniens, one volunteer, 0 to 1380 minutes (FIG. 10)", "value": "decreases rapidly during the first hours and tends to unity for longer times"}]}]}
